From patent US20260250290A1 (BRISTOL-MYERS SQUIBB COMPANY, priority 2023, published 2026)
Where a name gives a salt, the structure may show the parent alone.

Each compound was assayed against T1, SGK1 (Homo sapiens, UniProt O00141) (assay: SGK1 inhibition Assay B (Echo mass spectrometry of phosphorylated peptide product)). Conditions: 60 min at room temperature.
T1 sequence (O00141 1-431): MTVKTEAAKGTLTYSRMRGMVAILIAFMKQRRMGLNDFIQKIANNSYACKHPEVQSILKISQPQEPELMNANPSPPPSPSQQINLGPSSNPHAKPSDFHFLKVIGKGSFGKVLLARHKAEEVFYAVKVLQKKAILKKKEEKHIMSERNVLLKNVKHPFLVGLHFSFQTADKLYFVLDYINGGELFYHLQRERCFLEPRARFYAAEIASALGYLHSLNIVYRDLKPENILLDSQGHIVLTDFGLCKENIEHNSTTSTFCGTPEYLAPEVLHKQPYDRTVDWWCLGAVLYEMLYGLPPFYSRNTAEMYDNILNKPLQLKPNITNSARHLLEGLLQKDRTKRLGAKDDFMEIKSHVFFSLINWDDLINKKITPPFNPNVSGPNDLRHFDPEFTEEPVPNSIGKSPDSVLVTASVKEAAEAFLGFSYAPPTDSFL
Format: biochemical

Structure (SMILES) | IC50 [nM]
CCN1[C@@H]2CCC[C@H]1C[C@H](Oc1nc(C)sc1C(=O)N[C@@H]1CCCN(c3cc(-c4ccc(=O)n(CC(F)F)n4)n4ncnc(N)c34)C1)C2 [Example 970, N—((R)-1-(4-amino-7-(1-(2,2-difluoroethyl)-6-oxo-1,6-dihydropyridazin-3-yl)pyrrolo[2,1-f][1,2,4]triazin-5-yl)piperidin-3-yl)-4-(((1R,3s,5S)-9-ethyl-9-azabicyclo[3.3.1]nonan-3-yl)oxy)-2-methylthiazole-5-carboxamide] | 5
COC1=C(C(=O)N[C@@H]2CCCN(c3cc(C4=CCN(C(C)=O)C4)n4ncnc(N)c34)C2)CN(C)C1=O [Example 754, (R)-N-(1-(7-(1-acetyl-2,5-dihydro-1H-pyrrol-3-yl)-4-aminopyrrolo[2,1-f][1,2,4]triazin-5-yl)piperidin-3-yl)-4-methoxy-1-methyl-5-oxo-2,5-dihydro-1H-pyrrole-3-carboxamide] | 163
CN1[C@@H]2CC[C@H]1C[C@H](Oc1cc(Cl)sc1C(=O)N[C@@H]1CCCN(c3cc(-c4ccc(-n5cccn5)cc4)n4ncnc(N)c34)C1)C2 [Example 837, N-((R)-1-(7-(4-(1H-pyrazol-1-yl)phenyl)-4-aminopyrrolo[2,1-f][1,2,4]triazin-5-yl)piperidin-3-yl)-5-chloro-3-(((1R,3s,5S)-8-methyl-8-azabicyclo[3.2.1]octan-3-yl)oxy)thiophene-2-carboxamide] | 4
CC(C)N1CC2(CN(c3cccc(C(=O)N[C@@H]4CCCN(c5cc(-c6ccc(S(C)(=O)=O)cc6)n6ncnc(N)c56)C4)n3)C2)C1 [Example 832, (R)-N-(1-(4-amino-7-(4-(methylsulfonyl)phenyl)pyrrolo[2,1-f][1,2,4]triazin-5-yl)piperidin-3-yl)-6-(6-isopropyl-2,6-diazaspiro[3.3]heptan-2-yl)picolinamide] | 12
CCOC1=C(C(=O)N[C@@H]2CCCN(c3cc(C4=CCN(C(C)=O)C4)n4ncnc(N)c34)C2)CN(c2ccc(F)cc2F)C1=O [Example 756] | 52
CN1[C@@H]2CC[C@H]1C[C@H](Oc1cc(Cl)sc1C(=O)N[C@@H]1CCCN(c3cc(-c4ccnn4C)n4ncnc(N)c34)C1)C2 [Example 975, N—((R)-1-(4-amino-7-(1-methyl-1H-pyrazol-5-yl)pyrrolo[2,1-f][1,2,4]triazin-5-yl)piperidin-3-yl)-5-chloro-3-(((1R,3s,5S)-8-methyl-8-azabicyclo[3.2.1]octan-3-yl)oxy)thiophene-2-carboxamide] | 7
CC(C)N1CC2(CN(c3cccc(C(=O)N[C@@H]4CCCN(c5cc(-c6ccc(S(C)(=O)=O)nc6)n6ncnc(N)c56)C4)n3)C2)C1 [Example 834, (R)-N-(1-(4-amino-7-(6-(methylsulfonyl)pyridin-3-yl)pyrrolo[2,1-f][1,2,4]triazin-5-yl)piperidin-3-yl)-6-(6-isopropyl-2,6-diazaspiro[3.3]heptan-2-yl)picolinamide] | 20
CCOC1=C(C(=O)N[C@@H]2CCCN(c3cc(C4=CCN(C(C)=O)C4)n4ncnc(N)c34)C2)CN(c2ccc(OC)cc2)C1=O [Example 755, (R)-N-(1-(7-(1-acetyl-2,5-dihydro-1H-pyrrol-3-yl)-4-aminopyrrolo[2,1-f][1,2,4]triazin-5-yl)piperidin-3-yl)-4-ethoxy-1-(4-methoxyphenyl)-5-oxo-2,5-dihydro-1H-pyrrole-3-carboxamide] | 21
CC(=O)c1ccc(-c2cc(N3CCC[C@@H](NC(=O)c4sc(C)cc4O[C@@H]4C[C@H]5CC[C@@H](C4)N5C)C3)c3c(N)ncnn23)cn1 [Example 846, N-((R)-1-(7-(6-acetylpyridin-3-yl)-4-aminopyrrolo[2,1-f][1,2,4]triazin-5-yl)piperidin-3-yl)-5-methyl-3-(((1R,3s,5S)-8-methyl-8-azabicyclo[3.2.1]octan-3-yl)oxy)thiophene-2-carboxamide] | 16
CN1CCN(c2cccc(C(=O)N[C@@H]3CCCN(c4cc(-c5cnn(C(F)F)c5)n5ncnc(N)c45)C3)n2)CC1 [Example 807, (R)-N-(1-(4-amino-7-(1-(difluoromethyl)-1H-pyrazol-4-yl)pyrrolo[2,1-f][1,2,4]triazin-5-yl)piperidin-3-yl)-6-(4-methylpiperazin-1-yl)picolinamide, TFA salt] | 41
Cc1cc(-c2cc(N3CCC[C@@H](NC(=O)c4sc(C)nc4OC4CCC(N5CCC5)CC4)C3)c3c(N)ncnn23)cnn1 (stereo partly drawn) [Example 1047, N—((R)-1-(4-amino-7-(6-methylpyridazin-4-yl)pyrrolo[2,1-f][1,2,4]triazin-5-yl)piperidin-3-yl)-4-((4-(azetidin-1-yl)cyclohexyl)oxy)-2-methylthiazole-5-carboxamide] | 9.9

The remaining compounds from weak to strong by IC50, led by results:

IC50 [nM] | Structure (SMILES)
4 | Cc1nc(OC2CCCC(NC(C)C)CCC2)c(C(=O)N[C@@H]2CCCN(c3cc(-c4ccc(C(N)=O)c(F)c4)n4ncnc(N)c34)C2)s1 (stereo partly drawn) [Example 942, (R)—N-(1-(4-Amino-7-(4-carbamoyl-3-fluorophenyl)pyrrolo[2,1-f][1,2,4]triazin-5-yl)piperidin-3-yl)-4-((5-(isopropylamino)cyclooctyl)oxy)-2-methylthiazole-5-carboxamide]
4 | CCN1CCC(Oc2nc(C)sc2C(=O)N[C@@H]2CCCN(c3cc(C4=CCN(C(=O)C5(C#N)CC5)C4)n4ncnc(N)c34)C2)CC1(C)C (stereo partly drawn) [Example 985, N—((R)-1-(4-Amino-7-(1-(1-cyanocyclopropane-1-carbonyl)-2,5-dihydro-1H-pyrrol-3-yl)pyrrolo[2,1-f][1,2,4]triazin-5-yl)piperidin-3-yl)-4-((1-ethyl-2,2-dimethylpiperidin-4-yl)oxy)-2-methylthiazole-5-carboxamide]
3 | CC(=O)N1CC=C(c2cc(N3CCC[C@@H](NC(=O)c4sc(Cl)cc4OCC45CCCN4CCC5)C3)c3c(N)ncnn23)C1 [Example 917, N-[(3R)-1-[7-(1-acetyl-2,5-dihydro-1H-pyrrol-3-yl)-4-aminopyrrolo[2,1-f][1,2,4]triazin-5-yl]piperidin-3-yl]-5-chloro-3-[(hexahydro-1H-pyrrolizin-7a-yl)methoxy]thiophene-2-carboxamide]
2 | CC(=O)N1CC=C(c2cc(N3CCC[C@@H](NC(=O)c4sc(Cl)cc4OC4C[C@@H]5CN(C)C[C@@H]5C4)C3)c3c(N)ncnn23)C1 (stereo partly drawn) [Example 958, N—((R)-1-(7-(1-acetyl-2,5-dihydro-1H-pyrrol-3-yl)-4-aminopyrrolo[2,1-f][1,2,4]triazin-5-yl)piperidin-3-yl)-5-chloro-3-(((3aR,6aS)-2-methyloctahydrocyclopenta[c]pyrrol-5-yl)oxy) thiophene-2-carboxamide]
2 | Nc1ncnn2c(-c3ccc(=O)n(CC(F)F)n3)cc(N3CCC[C@@H](NC(=O)c4sc(Cl)cc4O[C@@H]4C[C@H]5CCC[C@@H](C4)N5CCO)C3)c12 [Example 972, N—((R)-1-(4-amino-7-(1-(2,2-difluoroethyl)-6-oxo-1,6-dihydropyridazin-3-yl)pyrrolo[2,1-f][1,2,4]triazin-5-yl)piperidin-3-yl)-5-chloro-3-(((1R,3s,5S)-9-(2-hydroxyethyl)-9-azabicyclo[3.3.1]nonan-3-yl)oxy)thiophene-2-carboxamide]
1.7 | [2H]C([2H])([2H])N([C@H]1CC[C@@H](Oc2nc(C)sc2C(=O)N[C@@H]2CCCN(c3cc(C4=C(C)C(=O)OC4)n4ncnc(N)c34)C2)CC1)C([2H])([2H])[2H] [Example 1013, N—((R)-1-(4-amino-7-(4-methyl-5-oxo-2,5-dihydrofuran-3-yl)pyrrolo[2,1-f][1,2,4]triazin-5-yl)piperidin-3-yl)-4-(((1S,4S)-4-(bis(methyl-d3)amino)cyclohexyl)oxy)-2-methylthiazole-5-carboxamide]
1 | COC[C@@H](C)N[C@H]1CC[C@@H](Oc2nc(C)sc2C(=O)N[C@@H]2CCCN(c3cc(C4=C(C)C(=O)OC4)n4ncnc(N)c34)C2)CC1 [Example 1007, N-((R)-1-(4-amino-7-(4-methyl-5-oxo-2.5-dihydrofuran-3-yl)pyrrolo[2,1-f][1,2,4]triazin-5-y1)piperidin-3-y1)-4-((4-(((R)-1-methoxypropan-2-yl)amino)cyclohexyl)oxy)-2~methylthiazole-5-carboxamide]
1 | [2H]C([2H])([2H])Oc1nccc(-c2cc(N3CCC[C@@H](NC(=O)c4sc(C)nc4O[C@H]4CC[C@@H](N(C)C)CC4)C3)c3c(N)ncnn23)n1 [Example 1033, N—((R)-1-(4-amino-7-(2-(methoxy-d3)pyrimidin-4-yl)pyrrolo[2,1-f][1,2,4]triazin-5-yl)piperidin-3-yl)-4-(((1S,4S)-4-(dimethylamino)cyclohexyl)oxy)-2-methylthiazole-5-carboxamide]
0.8 | CCC1=C(c2cc(N3CCC[C@@H](NC(=O)c4sc(C)nc4OC4CCC(N[C@H](C)COC)CC4)C3)c3c(N)ncnn23)COC1=O (single isomer, unassigned) [Example 1024]
0.8 | CN1[C@@H]2CC[C@H]1C[C@H](Oc1cc(Cl)sc1C(=O)N[C@@H]1CCCN(c3cc(C4=CCOC4)n4ncnc(N)c34)C1)C2 [Example 926, N—((R)-1-(4-amino-7-(2,5-dihydrofuran-3-yl)pyrrolo[2,1-f][1,2,4]triazin-5-yl)piperidin-3-yl)-5-chloro-3-(((1R,3s,5S)-8-methyl-8-azabicyclo[3.2.1]octan-3-yl)oxy)thiophene-2-carboxamide, TFA salt]
0.7 | Cc1nc(OC2CCC(N3CC(C)C3)CC2)c(C(=O)N[C@@H]2CCCN(c3cc(C4=CC(=O)OC4)n4ncnc(N)c34)C2)s1 (stereo partly drawn) [Example 999, (R)-N-(1-(4-amino-7-(5-oxo-2,5-dihydrofuran-3-y1)pyrrolo[2,1-f] [1,2,4]triazin-5-yl)piperidin-3-y1)-2-methyl-4-((4-(3-methylazetidin-1-yl)cyclohexyl)oxy)thiazole-5-carboxamide]
